Reference: patent US20020026053A1, “Novel 3-(substituted) -2- indolinones compounds and use thereof as inhibitors of protein kinase activity” (priority 1997, published 2002)

tested on: FLK-1 receptor; experiment: FLK-1 Assay (cellular/catalytic ELISA, VEGF-stimulated phosphotyrosine); type: cell-based; design: concentration or dose not given beside the values
Method in brief: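 Receptor phosphotyrosine ELISA: Flk-1-expressing NIH3T3 C7#3 cells, starved overnight in 0.1% FBS medium, received compound (1:200 final dilution, 0.5% DMSO) for 2 h at 37 °C, then VEGF. Anti-FLK-1-captured receptor was probed with anti-phosphotyrosine UB40 and peroxidase/ABTS read-out, relative to cells without compound.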

Row | Compound | Flk Kinase % Inhibition (P.110)
1 | Cc1c(O)ccc(C=C2C(=O)Nc3c(Br)cc(Br)c(C)c32)c1O [10718/H09] | −5.0%
2 | Cc1c(Br)cc(Br)c2c1C(=Cc1ccco1)C(=O)N2 [10718/H10] | 1.4%
3 | Cc1c(Br)cc(Br)c2c1C(=Cc1ccc([N+](=O)[O-])o1)C(=O)N2 [10718/H11] | 13.0%
4 | CCOc1ccc(C=C2C(=O)Nc3c(Br)cc(Br)c(C)c32)cc1OC [10719/H02] | 22.0%
5 | Cc1c(Br)cc(Br)c2c1C(=Cc1ccc(O)c(O)c1)C(=O)N2 [10719/H03] | −40.4%
6 | COc1ccc(C=C2C(=O)Nc3c(Br)cc(Br)c(C)c32)c(OC)c1 [10719/H04] | 3.4%
7 | CCc1c(C)[nH]c(C=C2C(=O)Nc3c(Br)cc(Br)c(C)c32)c1C [10719/H05] | 18.5%
8 | COc1cc(OC)c(C=C2C(=O)Nc3c(Br)cc(Br)c(C)c32)c(OC)c1 [10719/H06] | 17.8%
9 | CCN(CC)c1ccc(C=C2C(=O)Nc3c(Br)cc(Br)c(C)c32)c(O)c1 [10734/H05] | 1.6%
10 | Cc1c(Br)cc(Br)c2c1C(=Cc1ccc([N+](=O)[O-])cc1)C(=O)N2 [10734/H06] | 2.6%
11 | Cc1c(Br)cc(Br)c2c1C(=Cc1cc(Br)cc(Br)c1O)C(=O)N2 [10734/H07] | 1.4%
12 | Cc1c(Br)cc(Br)c2c1C(=Cc1cccc(F)c1O)C(=O)N2 [10734/H08] | −2.2%
13 | Cc1c(Br)cc(Br)c2c1C(=Cc1ccc(O)c(Br)c1)C(=O)N2 [10734/H09] | −2.2%
14 | Cc1c(Br)cc(Br)c2c1C(=Cc1ccc(C(C)(C)C)cc1)C(=O)N2 [10734/H10] | 3.9%
15 | Cc1c(Br)cc(Br)c2c1C(=Cc1ccc(Br)s1)C(=O)N2 [10734/H11] | 9.9%
16 | Cc1ccccc1C=C1C(=O)Nc2c(Br)cc(Br)cc21 [10735/A02] | −13.4%
17 | O=C1Nc2c(Br)cc(Br)cc2C1=Cc1ccc(F)c(F)c1 [10735/A03] | −1.0%
18 | O=C1Nc2c(Br)cc(Br)cc2C1=Cc1cc(F)cc(F)c1 [10735/A04] | −20.8%
19 | O=C1Nc2c(Br)cc(Br)cc2C1=Cc1cccc(C(F)(F)F)c1 [10735/A05] | −12.2%
20 | O=C1Nc2c(Br)cc(Br)cc2C1=Cc1cc(C(F)(F)F)cc(C(F)(F)F)c1 [10735/A06] | −8.5%

Row | Compound | Flk Kinase % Inhibition (P.110)
21 | N#Cc1ccccc1C=C1C(=O)Nc2c(Br)cc(Br)cc21 [10735/A07] | −1.3%
22 | O=C1Nc2c(Br)cc(Br)cc2C1=Cc1c(F)cccc1F [10735/A08] | −19.6%
23 | O=C1Nc2c(Br)cc(Br)cc2C1=Cc1cccc2ccccc12 [10735/A09] | −6.3%
24 | O=C1Nc2c(Br)cc(Br)cc2C1=Cc1ccc(Cl)cc1Cl [10735/A10] | 2.2%
25 | O=C1Nc2c(Br)cc(Br)cc2C1=Cc1ccc(-c2ccccc2)cc1 [10735/A11] | 2.2%
26 | Cc1ccccc1C=C1C(=O)Nc2ccc(I)cc21 [10735/B02] | 1.1%
27 | O=C1Nc2ccc(I)cc2C1=Cc1ccc(F)c(F)c1 [10735/B03] | −14.3%
28 | O=C1Nc2ccc(I)cc2C1=Cc1cc(F)cc(F)c1 [10735/B04] | 6.1%
29 | O=C1Nc2ccc(I)cc2C1=Cc1cccc(C(F)(F)F)c1 [10735/B05] | 7.4%
30 | O=C1Nc2ccc(I)cc2C1=Cc1cc(C(F)(F)F)cc(C(F)(F)F)c1 [10735/B06] | 17.5%
31 | N#Cc1ccccc1C=C1C(=O)Nc2ccc(I)cc21 [10735/B07] | −5.9%
32 | O=C1Nc2ccc(I)cc2C1=Cc1c(F)cccc1F [10735/B08] | 1.6%
33 | O=C1Nc2ccc(I)cc2C1=Cc1cccc2ccccc12 [10735/B09] | 15.9%
34 | O=C1Nc2ccc(I)cc2C1=Cc1ccc(Cl)cc1Cl [10735/B10] | 9.2%
35 | O=C1Nc2ccc(I)cc2C1=Cc1ccc(-c2ccccc2)cc1 [10735/B11] | 15.7%
36 | Cc1ccccc1C=C1C(=O)Nc2ccc(Br)c(C)c21 [10735/C02] | 0.1%
37 | Cc1c(Br)ccc2c1C(=Cc1ccc(F)c(F)c1)C(=O)N2 [10735/C03] | 0.9%
38 | Cc1c(Br)ccc2c1C(=Cc1cc(F)cc(F)c1)C(=O)N2 [10735/C04] | 17.2%
39 | Cc1c(Br)ccc2c1C(=Cc1cccc(C(F)(F)F)c1)C(=O)N2 [10735/C05] | 11.2%
40 | Cc1c(Br)ccc2c1C(=Cc1cc(C(F)(F)F)cc(C(F)(F)F)c1)C(=O)N2 [10735/C06] | 18.2%

Row | Compound | Flk Kinase % Inhibition (P.110)
41 | Cc1c(Br)ccc2c1C(=Cc1ccccc1C#N)C(=O)N2 [10735/C07] | 9.6%
42 | Cc1c(Br)ccc2c1C(=Cc1c(F)cccc1F)C(=O)N2 [10735/C08] | 10.1%
43 | Cc1c(Br)ccc2c1C(=Cc1cccc3ccccc13)C(=O)N2 [10735/C09] | 24.5%
44 | Cc1c(Br)ccc2c1C(=Cc1ccc(Cl)cc1Cl)C(=O)N2 [10735/C10] | 21.0%
45 | Cc1c(Br)ccc2c1C(=Cc1ccc(-c3ccccc3)cc1)C(=O)N2 [10735/C11] | 18.6%
46 | CNS(=O)(=O)c1ccc2c(c1)C(=Cc1ccccc1C)C(=O)N2 [10735/D02] | 0.9%
47 | CNS(=O)(=O)c1ccc2c(c1)C(=Cc1ccc(F)c(F)c1)C(=O)N2 [10735/D03] | 4.5%
48 | CNS(=O)(=O)c1ccc2c(c1)C(=Cc1cc(F)cc(F)c1)C(=O)N2 [10735/D04] | 9.1%
49 | CNS(=O)(=O)c1ccc2c(c1)C(=Cc1cccc(C(F)(F)F)c1)C(=O)N2 [10735/D05] | 29.5%
50 | CNS(=O)(=O)c1ccc2c(c1)C(=Cc1cc(C(F)(F)F)cc(C(F)(F)F)c1)C(=O)N2 [10735/D06] | 16.2%
51 | CNS(=O)(=O)c1ccc2c(c1)C(=Cc1ccccc1C#N)C(=O)N2 [10735/D07] | 21.6%
52 | CNS(=O)(=O)c1ccc2c(c1)C(=Cc1c(F)cccc1F)C(=O)N2 [10735/D08] | 21.6%
53 | CNS(=O)(=O)c1ccc2c(c1)C(=Cc1cccc3ccccc13)C(=O)N2 [10735/D09] | 22.6%
54 | CNS(=O)(=O)c1ccc2c(c1)C(=Cc1ccc(Cl)cc1Cl)C(=O)N2 [10735/D10] | 15.1%
55 | CNS(=O)(=O)c1ccc2c(c1)C(=Cc1ccc(-c3ccccc3)cc1)C(=O)N2 [10735/D11] | 25.1%
56 | Cc1ccccc1C=C1C(=O)Nc2ccc(S(=O)(=O)Nc3ccc(C(F)(F)F)cc3)cc21 [10735/E02] | −2.0%
57 | O=C1Nc2ccc(S(=O)(=O)Nc3ccc(C(F)(F)F)cc3)cc2C1=Cc1ccc(F)c(F)c1 [10735/E03] | 5.1%
58 | O=C1Nc2ccc(S(=O)(=O)Nc3ccc(C(F)(F)F)cc3)cc2C1=Cc1cc(F)cc(F)c1 [10735/E04] | 12.2%
59 | O=C1Nc2ccc(S(=O)(=O)Nc3ccc(C(F)(F)F)cc3)cc2C1=Cc1cccc(C(F)(F)F)c1 [10735/E05] | 14.7%
